One block for each compound: values may come before it.
What was measured:
RnMFE1 [1] = target: T1, RnMFE1 (Rattus norvegicus, UniProt P07896, E123A); assay: stopped-flow tryptophan fluorescence, koff/kon; format: binding
T1 construct: gene Ehhadh
Excerpt: (§1) stopped-flow tryptophan fluorescence, koff/kon on RnMFE1

RnMFE1 [2] = target: T2, RnMFE1 (Rattus norvegicus, UniProt P07896); assay: stopped-flow tryptophan fluorescence, koff/kon; format: binding
T2 construct: gene Ehhadh
Excerpt: as §1

HsHAD [3] = target: T3, HsHAD (Homo sapiens, UniProt Q16836); assay: stopped-flow tryptophan fluorescence, koff/kon; format: binding
T3 construct: gene HADH; N-terminal His6 tag in pET28a, E. coli BL21(DE3) pLysS, dimer of 35 kDa subunits
T3 sequence (Q16836 13-314): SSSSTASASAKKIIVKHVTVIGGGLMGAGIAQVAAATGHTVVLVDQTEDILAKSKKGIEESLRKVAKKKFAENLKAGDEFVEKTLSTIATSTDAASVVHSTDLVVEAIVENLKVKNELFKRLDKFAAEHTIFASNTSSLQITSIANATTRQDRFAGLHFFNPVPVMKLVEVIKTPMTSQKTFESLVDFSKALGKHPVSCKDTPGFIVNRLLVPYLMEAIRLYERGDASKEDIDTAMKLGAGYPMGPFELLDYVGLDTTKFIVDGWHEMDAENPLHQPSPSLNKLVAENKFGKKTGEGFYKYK
Excerpt: stopped-flow tryptophan fluorescence, koff/kon on HsHAD

BCDE [4] = target: T4, BCDE (Rattus norvegicus, UniProt P07896); assay: stopped-flow tryptophan fluorescence, koff/kon; format: binding
T4 construct: gene Ehhadh; truncated RnMFE1 from Ala260 (ASGQ) to the C-terminus, without domain A (ECH part); N-terminal His6 tag, E. coli BL21(DE3) pLysS
Excerpt: stopped-flow tryptophan fluorescence, koff/kon on BCDE

RnMFE1 [5] = target: T2, RnMFE1; assay: stopped-flow NADH formation, kobs vs substrate; format: biochemical; conditions: 1 mM NAD+, pH 9.0, 50 mM Tris, 50 mM KCl, room temperature; coupled ECH and HAD reactions of the same enzyme
Excerpt: stopped-flow NADH formation, kobs vs substrate on RnMFE1

BCDE [6] = target: T4, BCDE; assay: stopped-flow NADH fluorescence, koff/kon; format: binding
Excerpt: stopped-flow NADH fluorescence, koff/kon on BCDE

HsHAD [7] = target: T3, HsHAD; assay: stopped-flow NADH fluorescence, koff/kon; format: binding
Excerpt: stopped-flow NADH fluorescence, koff/kon on HsHAD

RnMFE1 [8] = target: T1, RnMFE1; assay: stopped-flow NADH fluorescence, koff/kon; format: binding
Excerpt: (§2) stopped-flow NADH fluorescence, koff/kon on RnMFE1

RnMFE1 [9] = target: T2, RnMFE1; assay: stopped-flow NADH fluorescence, koff/kon; format: binding
Excerpt: as §2

T2 sequence (P07896 whole entry): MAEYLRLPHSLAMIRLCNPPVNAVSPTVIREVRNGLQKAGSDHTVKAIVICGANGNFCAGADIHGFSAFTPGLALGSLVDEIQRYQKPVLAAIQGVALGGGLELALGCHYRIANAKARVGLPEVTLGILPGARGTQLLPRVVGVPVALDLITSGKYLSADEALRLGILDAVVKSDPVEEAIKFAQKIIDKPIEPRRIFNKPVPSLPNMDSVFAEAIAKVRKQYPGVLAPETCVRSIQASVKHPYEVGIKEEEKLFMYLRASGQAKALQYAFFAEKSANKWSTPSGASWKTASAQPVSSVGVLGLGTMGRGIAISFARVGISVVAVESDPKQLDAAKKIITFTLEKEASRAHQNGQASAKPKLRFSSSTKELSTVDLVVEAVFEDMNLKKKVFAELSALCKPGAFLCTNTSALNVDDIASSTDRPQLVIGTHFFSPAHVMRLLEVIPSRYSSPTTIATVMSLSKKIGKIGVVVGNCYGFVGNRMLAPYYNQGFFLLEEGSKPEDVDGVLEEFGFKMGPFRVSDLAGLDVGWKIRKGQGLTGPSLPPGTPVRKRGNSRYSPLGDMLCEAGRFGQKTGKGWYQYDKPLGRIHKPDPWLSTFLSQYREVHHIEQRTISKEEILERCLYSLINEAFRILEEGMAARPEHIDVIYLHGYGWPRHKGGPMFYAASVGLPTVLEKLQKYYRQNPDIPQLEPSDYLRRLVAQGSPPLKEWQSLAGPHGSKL
T1 sequence (P07896 whole entry E123A): as the sequence (P07896 whole entry) above, with E123A counted along it
T4 sequence (P07896 260-722): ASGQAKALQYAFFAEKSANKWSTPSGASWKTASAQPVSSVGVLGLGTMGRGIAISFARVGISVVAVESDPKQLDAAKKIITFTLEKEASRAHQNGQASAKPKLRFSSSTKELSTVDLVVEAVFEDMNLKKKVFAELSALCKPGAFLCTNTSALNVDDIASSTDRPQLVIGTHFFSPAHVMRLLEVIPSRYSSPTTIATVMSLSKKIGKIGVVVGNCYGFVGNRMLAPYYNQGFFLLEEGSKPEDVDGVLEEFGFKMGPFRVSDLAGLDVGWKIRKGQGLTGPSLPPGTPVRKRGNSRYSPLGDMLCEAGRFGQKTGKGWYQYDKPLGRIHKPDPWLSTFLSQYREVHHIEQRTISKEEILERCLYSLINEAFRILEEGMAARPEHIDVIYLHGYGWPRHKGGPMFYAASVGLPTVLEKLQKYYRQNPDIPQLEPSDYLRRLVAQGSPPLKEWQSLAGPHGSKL

- Kd (RnMFE1 [1]): 8 µM
- Kd (RnMFE1 [2]): 7.6 µM
- Kd (HsHAD [3]): 6 µM
- Kd (BCDE [4]): 7.5 µM
Structure (SMILES): NC(=O)c1ccc[n+]([C@@H]2O[C@H](COP(=O)(O)OP(=O)(O)OC[C@H]3O[C@@H](n4cnc5c(N)ncnc54)[C@H](O)[C@@H]3O)[C@@H](O)[C@H]2O)c1 [NAD^+]

- Kd (RnMFE1 [5]): 1.9 ± 0.1 µM
Structure (SMILES): C/C=C/C(=O)SCCNC(=O)CCNC(=O)[C@H](O)C(C)(C)COP(=O)(O)OP(=O)(O)OC[C@H]1O[C@@H](n2cnc3c(N)ncnc32)[C@H](O)[C@@H]1OP(=O)(O)O [2E‐butenoyl‐CoA]

- Kd (BCDE [6]): 5.7 µM
- Kd (HsHAD [7]): 7 µM
- Kd (RnMFE1 [8]): 7.5 µM
- Kd (RnMFE1 [9]): 5 µM
Structure (SMILES): NC(=O)C1=CN([C@@H]2O[C@H](COP(=O)(O)OP(=O)(O)OC[C@H]3O[C@@H](n4cnc5c(N)ncnc54)[C@H](O)[C@@H]3O)[C@@H](O)[C@H]2O)C=CC1 [NADH]

Reference: article PMC10988713 (FEBS Open Bio, 2024)
